The text below walks through data of EPA's ToxValDB 9.5 (doi:10.2903/j.efsa.2006.69r).

One data set concerns Aphidius rhopalosiphi. Put plainly: LR50; higher = less toxic. Particulars: not reported; mortality.
The next data set deals with Pimephales promelas. The note with it: chronic/long-term; duration: 32 days.
The test system of another data set is Canidae. The note with it: oral, Dog Other, neurology.
A further data set relates to Lepomis macrochirus. The note with it: acute; duration: 96 hours; mortality.
The next data set relates to Rattus norvegicus. The note with it: for LD50: acute.
The test system of a further data set is Daphnia magna. Particulars: chronic/long-term; duration: 21 days.
Another data set relates to Apis mellifera. Particulars: acute, mortality.
For data set [1] the following is noted: subchronic; duration: 56 days.
In a further data set the test system is Brassica rapa. The note with it: acute; duration: 21 days; seedling emergence.
The next data set relates to Colinus virginianus. The note with it: short-term; oral; diet; reproduction.
Where [2] appears, read: short-term, oral, feed, mortality.

In general, NOAEL refers to the highest dose or exposure tested at which no adverse effect was seen.

In the data set on Aphidius rhopalosiphi, `CNC(=O)Oc1cccc(N=CN(C)C)c1.Cl` [Formetanate hydrochloride] yielded an LR50 of 0.21 g/ha. In addition, the NOEC with Pimephales promelas was 0.48 mg/L; with Daphnia magna it was 0.0011 mg/L; in the data set with Brassica rapa it was over 500 g/ha; with Anas platyrhynchos (reproductive), 15.6 mg/kg-day; in the data set with Anas platyrhynchos (setting [2]) it was 22.7 mg/kg-day; in the data set on Colinus virginianus it was 15.6 mg/kg-day. Further, the NOEC in the data set with Tagia sp. (chronic/long-term) was found to be 1.8 mg/kg. Moreover, the NOAEL in the data set on Canidae (chronic, duration: 1 years) was 0.4 mg/kg-day; in the data set with Canidae (short-term, duration: 29 days) it was 0.4 mg/kg-day; in the data set with Rattus norvegicus (short-term, duration: 28 days, oral, gavage, F, clinical chemistry) it was 0.5 mg/kg-day. For the same compound, the LC50 in the data set with Lepomis macrochirus came to 2.76 µg/mL; in the data set on Anas platyrhynchos (setting [2]), 116 mg/kg-day; in the data set with Tagia sp. (acute, duration: 14 days, mortality), 1050 mg/kg. Besides, the LD50 was determined as 14.8 mg/kg with Rattus norvegicus (oral, F, mortality); 21 mg/kg in the data set on Rattus norvegicus (oral, M/F, mortality); 1.02 µg/piece in the data set on Apis mellifera (dermal); 0.16 µg/piece in the data set on Apis mellifera (duration: 48 hours, oral, unspecified); 11.5 mg/kg with Anas platyrhynchos (acute, oral, unspecified, mortality). The NOEL with Rattus norvegicus (reproduction developmental, mortality) amounted to 22.4 mg/kg-day. In data set [1], this compound displayed an NOAEC of 0.703 mg/L.
